Experiment [1] relates to Canis familiaris. The experiment in a line: Mean percent decrease in mean blood pressure was determined at the dose of 15 umol/kg in mongrel dogs. It is filed as functional, Canis lupus familiaris.
For experiment [2], the system named is Canis familiaris. Briefly: Mean percent decrease in mean blood pressure was determined at the dose of 15 umol/kg (2 minutes after injection) in mongrel dogs. It is filed as functional, Canis lupus familiaris.

SMILES strings stand for the structures.

With `COc1ccc(C[C@@H]2CCC[C@@H]2N)cc1OC`, the “Decrease in blood pressure” value with Canis familiaris [1] is on record as 30%; in the experiment with Canis familiaris [2], 37.9%.

On to `COc1ccc(C[C@@H]2CCC[C@H]2N)cc1OC`, for which the “Decrease in blood pressure” value in the experiment with Canis familiaris [1] turned out to be 25.1%; in the experiment with Canis familiaris [2], 7.5%.

For the origin of these results see ChEMBL document CHEMBL1122017, “Synthesis and peripheral cardiovascular action of cis- and trans-2-(3,4-dimethoxybenzyl)cyclopentylamine hydrochlorides” (1982).
